According to publication PMC4153739 (Biochemistry, 2012):

Key:
[1] = molecular target: NR1-2b/NR2B NMDA receptor (Rattus norvegicus, UniProt P35439+Q00960); type: cell-based
[2] = tested on: 6 Hz partial psychomotor seizure
[3] = molecular target: NR1-2b/NR2D NMDA receptor (Rattus norvegicus, UniProt P35439+Q62645); type: cell-based; conditions: 10 µM
[4] = molecular target: NR1-2b/NR2C NMDA receptor (Rattus norvegicus, UniProt P35439+Q00961); type: cell-based; conditions: 10 µM
[5] = type: physicochemical; conditions: pH 7
[6] = tested on: NR1–2a-containing NMDA receptor subtypes; type: cell-based, rat; conditions: 10 µM

Sequence of NR1-2b/NR2C NMDA receptor (Q00961 20-1237, other chains not shown): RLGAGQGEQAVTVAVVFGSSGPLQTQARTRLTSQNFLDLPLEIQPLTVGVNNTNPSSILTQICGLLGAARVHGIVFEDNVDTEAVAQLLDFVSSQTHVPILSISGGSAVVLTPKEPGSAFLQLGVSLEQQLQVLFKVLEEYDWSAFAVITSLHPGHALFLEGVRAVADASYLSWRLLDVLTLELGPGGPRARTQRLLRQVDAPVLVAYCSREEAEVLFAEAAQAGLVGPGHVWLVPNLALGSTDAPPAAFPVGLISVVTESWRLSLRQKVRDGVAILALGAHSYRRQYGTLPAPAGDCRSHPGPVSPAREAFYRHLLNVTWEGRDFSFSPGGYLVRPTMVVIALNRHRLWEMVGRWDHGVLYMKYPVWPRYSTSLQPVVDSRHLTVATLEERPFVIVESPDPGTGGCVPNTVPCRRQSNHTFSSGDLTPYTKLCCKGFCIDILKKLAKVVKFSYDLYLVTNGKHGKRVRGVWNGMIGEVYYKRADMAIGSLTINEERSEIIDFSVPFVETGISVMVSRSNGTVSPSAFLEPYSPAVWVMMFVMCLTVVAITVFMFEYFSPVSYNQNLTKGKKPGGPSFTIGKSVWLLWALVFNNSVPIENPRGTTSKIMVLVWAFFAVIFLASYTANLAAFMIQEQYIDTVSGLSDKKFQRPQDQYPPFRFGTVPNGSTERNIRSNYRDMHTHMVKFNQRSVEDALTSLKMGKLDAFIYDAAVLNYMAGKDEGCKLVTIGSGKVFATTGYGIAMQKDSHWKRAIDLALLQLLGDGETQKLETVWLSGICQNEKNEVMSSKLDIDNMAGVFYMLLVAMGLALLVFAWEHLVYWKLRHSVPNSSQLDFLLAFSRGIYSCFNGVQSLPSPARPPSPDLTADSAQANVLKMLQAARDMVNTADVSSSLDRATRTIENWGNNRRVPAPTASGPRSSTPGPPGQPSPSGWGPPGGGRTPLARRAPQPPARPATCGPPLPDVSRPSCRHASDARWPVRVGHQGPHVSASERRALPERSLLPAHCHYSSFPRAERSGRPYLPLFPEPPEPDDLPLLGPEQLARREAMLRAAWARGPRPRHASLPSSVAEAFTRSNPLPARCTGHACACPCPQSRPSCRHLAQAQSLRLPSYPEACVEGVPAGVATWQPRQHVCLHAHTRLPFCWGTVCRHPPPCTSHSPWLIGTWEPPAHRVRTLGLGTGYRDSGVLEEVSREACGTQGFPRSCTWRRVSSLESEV
Sequence of NR1-2b/NR2D NMDA receptor (Q62645 28-1323, other chains not shown): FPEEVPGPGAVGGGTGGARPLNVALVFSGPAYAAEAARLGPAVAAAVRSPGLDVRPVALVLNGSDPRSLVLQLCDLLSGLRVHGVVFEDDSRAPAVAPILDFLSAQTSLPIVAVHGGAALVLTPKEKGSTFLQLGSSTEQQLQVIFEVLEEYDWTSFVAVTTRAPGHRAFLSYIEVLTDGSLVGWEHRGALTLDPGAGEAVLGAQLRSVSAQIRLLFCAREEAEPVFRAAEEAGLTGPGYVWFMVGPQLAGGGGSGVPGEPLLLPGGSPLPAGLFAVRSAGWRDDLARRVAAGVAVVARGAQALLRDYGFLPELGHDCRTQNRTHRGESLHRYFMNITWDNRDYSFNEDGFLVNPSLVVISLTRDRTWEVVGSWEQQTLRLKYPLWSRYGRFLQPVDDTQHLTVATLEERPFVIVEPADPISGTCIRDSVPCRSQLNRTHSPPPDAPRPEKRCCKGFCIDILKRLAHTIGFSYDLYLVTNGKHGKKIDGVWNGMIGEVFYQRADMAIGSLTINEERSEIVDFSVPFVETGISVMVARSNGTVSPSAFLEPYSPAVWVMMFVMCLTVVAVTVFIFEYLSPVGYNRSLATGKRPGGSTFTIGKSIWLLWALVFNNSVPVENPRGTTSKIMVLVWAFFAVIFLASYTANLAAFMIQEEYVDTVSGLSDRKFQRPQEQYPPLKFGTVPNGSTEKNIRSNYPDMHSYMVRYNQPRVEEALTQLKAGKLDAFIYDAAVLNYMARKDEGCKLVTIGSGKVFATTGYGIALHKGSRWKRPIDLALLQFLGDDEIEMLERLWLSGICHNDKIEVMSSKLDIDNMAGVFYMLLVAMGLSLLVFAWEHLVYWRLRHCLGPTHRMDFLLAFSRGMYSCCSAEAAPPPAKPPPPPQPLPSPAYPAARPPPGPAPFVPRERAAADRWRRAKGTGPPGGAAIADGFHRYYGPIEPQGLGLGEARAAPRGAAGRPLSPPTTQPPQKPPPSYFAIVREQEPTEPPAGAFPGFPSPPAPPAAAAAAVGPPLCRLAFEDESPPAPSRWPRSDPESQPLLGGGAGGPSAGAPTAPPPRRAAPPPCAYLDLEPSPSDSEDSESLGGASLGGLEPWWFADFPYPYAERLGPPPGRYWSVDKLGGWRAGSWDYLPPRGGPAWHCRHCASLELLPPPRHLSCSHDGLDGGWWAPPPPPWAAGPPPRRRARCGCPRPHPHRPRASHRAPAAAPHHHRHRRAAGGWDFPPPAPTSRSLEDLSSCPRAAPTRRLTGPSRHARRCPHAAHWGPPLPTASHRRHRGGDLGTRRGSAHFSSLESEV
Sequence of NR1-2b/NR2B NMDA receptor (Q00960 27-1482, other chains not shown): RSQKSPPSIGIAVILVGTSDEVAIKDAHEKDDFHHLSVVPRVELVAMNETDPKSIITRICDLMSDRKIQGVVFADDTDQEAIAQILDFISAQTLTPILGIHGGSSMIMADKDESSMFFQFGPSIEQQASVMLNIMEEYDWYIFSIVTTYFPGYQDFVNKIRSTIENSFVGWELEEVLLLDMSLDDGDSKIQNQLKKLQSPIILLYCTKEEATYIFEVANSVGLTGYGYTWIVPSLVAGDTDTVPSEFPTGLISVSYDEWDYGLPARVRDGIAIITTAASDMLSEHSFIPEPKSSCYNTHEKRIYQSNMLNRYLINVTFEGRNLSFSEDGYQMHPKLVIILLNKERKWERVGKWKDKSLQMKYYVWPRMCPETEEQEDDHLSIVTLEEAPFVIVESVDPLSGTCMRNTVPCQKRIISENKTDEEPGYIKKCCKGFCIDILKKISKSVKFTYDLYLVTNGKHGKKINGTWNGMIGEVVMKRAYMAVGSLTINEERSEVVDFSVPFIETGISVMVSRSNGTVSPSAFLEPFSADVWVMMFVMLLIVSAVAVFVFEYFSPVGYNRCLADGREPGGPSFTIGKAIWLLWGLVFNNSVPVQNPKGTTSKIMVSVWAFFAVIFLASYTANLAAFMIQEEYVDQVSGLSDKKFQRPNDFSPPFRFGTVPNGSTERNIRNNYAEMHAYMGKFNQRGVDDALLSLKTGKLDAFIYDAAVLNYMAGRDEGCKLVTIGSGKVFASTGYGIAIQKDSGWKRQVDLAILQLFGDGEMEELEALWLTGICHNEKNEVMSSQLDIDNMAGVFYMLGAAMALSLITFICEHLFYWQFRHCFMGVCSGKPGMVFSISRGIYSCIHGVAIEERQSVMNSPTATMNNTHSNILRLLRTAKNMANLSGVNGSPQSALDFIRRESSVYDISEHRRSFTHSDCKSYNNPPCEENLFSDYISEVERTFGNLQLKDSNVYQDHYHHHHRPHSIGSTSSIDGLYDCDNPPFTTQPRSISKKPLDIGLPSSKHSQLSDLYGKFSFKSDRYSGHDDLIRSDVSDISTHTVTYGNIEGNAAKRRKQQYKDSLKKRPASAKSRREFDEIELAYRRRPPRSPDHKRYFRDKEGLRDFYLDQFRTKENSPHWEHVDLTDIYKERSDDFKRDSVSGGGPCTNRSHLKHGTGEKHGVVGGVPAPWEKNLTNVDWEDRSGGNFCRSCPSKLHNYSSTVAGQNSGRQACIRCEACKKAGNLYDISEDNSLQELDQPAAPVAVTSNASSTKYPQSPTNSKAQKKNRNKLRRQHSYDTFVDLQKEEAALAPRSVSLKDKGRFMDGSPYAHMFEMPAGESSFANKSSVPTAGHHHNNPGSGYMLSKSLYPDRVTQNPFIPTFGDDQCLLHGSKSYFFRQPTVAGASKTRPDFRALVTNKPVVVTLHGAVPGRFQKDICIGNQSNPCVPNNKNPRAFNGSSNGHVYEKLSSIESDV

Compound: CC(C)C[C@H](NC(=O)[C@H](CC(C(=O)O)C(=O)O)NC(=O)[C@H](CCCNC(=N)N)NC(=O)[C@H](C)NC(=O)[C@H](Cc1ccccc1)NC(=O)[C@H](CC(C(=O)O)C(=O)O)NC(=O)[C@@H]1C[C@@H](O)CN1C(=O)[C@H](C)NC(=O)[C@H](CCCCN)NC(=O)[C@H](CC(C(=O)O)C(=O)O)NC(=O)[C@H](C)NC(=O)[C@H](CC(C)C)NC(=O)[C@H](CC(C(=O)O)C(=O)O)NC(=O)[C@H](CC(C(=O)O)C(=O)O)NC(=O)[C@H](CCC(=O)O)NC(=O)CN)C(=O)N[C@@H](C)C(=O)N[C@@H](CC(N)=O)C(N)=O [ConRl-B]
- discrimination between NR2B and all other NR2 subunits [1]: at least 100 fold
- rectal body temperature versus saline control group ([2]; mouse, in vivo): did not differ between groups
- mice protected from seizures ([2]; n=8): 50%
- antagonist activity at the highest concentration tested, NR2D [3]: little or no antagonist activity
- antagonist activity at the highest concentration tested, NR2C [4]: little or no antagonist activity
- estimated helical content in the presence of calcium [5]: 59%
- estimated percentage of helicity in the absence of calcium [5]: 10%
- percent of helical transition induced by calcium [5]: 49%
- potency on NR1-2a-containing subtypes [6]: little or no potency
